Test [1] concerns the target FPR2 (Homo sapiens (Human), UniProt P25090). Nature of the test: Agonistic activity (calcium FLIPR) in hFPR2-Aq-CHO cells. The settings on record: FLIPR Calcium 5 dye fluorescence, agonistic response. It is filed as cell-based. Put shortly: (§1)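 CHO cells expressing hFPR1-Gα15 or hFPR2-Aq were plated 18 hours, then loaded with Calcium 5 dye (pH 7.4, probenecid) for 30 minutes at 37° C. Compounds (final 10 μM to 100 pM, 11 half-log points) were added on FLIPR, with fluorescence followed for 5 minutes. EC50 came from the rise over basal relative to no-compound wells.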

The target in test [2] is FPR1 (Homo sapiens (Human), UniProt P21462). Nature of the test: Agonistic activity (calcium FLIPR) in hFPR1-Gα15-CHO cells. It is filed as cell-based. To be noted: FLIPR Calcium 5 dye fluorescence, agonistic response. An outline of the steps: as §1
Sequence of FPR1 (P21462 whole entry): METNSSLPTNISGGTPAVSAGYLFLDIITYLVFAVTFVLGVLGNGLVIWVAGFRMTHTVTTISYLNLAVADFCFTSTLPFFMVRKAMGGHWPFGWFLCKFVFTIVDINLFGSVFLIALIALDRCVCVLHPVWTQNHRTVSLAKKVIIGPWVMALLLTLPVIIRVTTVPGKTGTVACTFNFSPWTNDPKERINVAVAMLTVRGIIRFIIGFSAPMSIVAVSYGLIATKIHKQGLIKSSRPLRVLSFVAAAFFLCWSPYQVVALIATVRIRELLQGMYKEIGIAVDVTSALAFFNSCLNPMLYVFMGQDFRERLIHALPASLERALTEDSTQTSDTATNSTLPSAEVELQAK

Sequence of FPR2 (P25090 whole entry): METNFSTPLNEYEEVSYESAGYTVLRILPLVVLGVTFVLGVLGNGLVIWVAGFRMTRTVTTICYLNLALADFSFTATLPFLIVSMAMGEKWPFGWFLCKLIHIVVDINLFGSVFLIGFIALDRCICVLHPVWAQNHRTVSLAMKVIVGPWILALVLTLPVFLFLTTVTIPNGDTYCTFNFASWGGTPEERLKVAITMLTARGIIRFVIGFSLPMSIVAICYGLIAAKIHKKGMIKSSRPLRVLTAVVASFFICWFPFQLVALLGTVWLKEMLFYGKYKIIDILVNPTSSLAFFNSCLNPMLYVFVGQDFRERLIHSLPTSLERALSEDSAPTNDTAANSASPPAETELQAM

One may read the EC50 as the concentration at which the effect is half-maximal. On to `COc1ccc(C2CC(=O)N(CC(F)F)CC2NC(=O)Nc2ccc(Cl)cc2)c(F)c1` (single isomer, unassigned; ent1) [Example 61, trans-ent1-1-(4-Chlorophenyl)-3-[1-(2,2-difluoro-ethyl)-4-(2-fluoro-4-methoxy-phenyl)-6-oxo-piperidin-3-yl]-urea], for which the EC50 in test [1] and in test [2] was less than 1 nM each time.
With `COc1ccc([C@@H]2CCN(C(C)=O)C[C@H]2NC(=O)Nc2ccc(Cl)nc2)cc1` (racemic) [Example 19, rac-trans-1-(1-acetyl-4-(4-methoxyphenyl)piperidin-3-yl)-3-(6-chloropyridin-3-yl)urea], the EC50 in test [1] and in test [2] was 1 to 1000 nM throughout.
Turning to “ent1-1-(4-chlorophenyl)-3-(4-(2-fluoro-4-methoxyphenyl)piperidin-3-yl)urea [Example 45]”, the EC50 in test [1] is less than 1 nM; in test [2] it was 1 to 1000 nM.
The like results for `COc1ccc(C2CC(=O)N(CC(F)F)CC2NC(=O)Nc2ccc(Cl)cc2)c(F)c1` (single isomer, unassigned; ent2) [Example 62, trans-ent2-1-(4-Chlorophenyl)-3-[1-(2,2-difluoro-ethyl)-4-(2-fluoro-4-methoxy-phenyl)-6-oxo-piperidin-3-yl]-urea] were, in that order, 1 to 1000 nM and 1 to 1000 nM.
The like results for `COc1ccc([C@@H]2CCNC[C@H]2NC(=O)Nc2ccc(Br)cc2)cc1` (racemic) [Example 6, rac-trans-1-(4-bromophenyl)-3-(4-(4-methoxyphenyl)piperidin-3-yl)urea] were, in that order, less than 1 nM and 1 to 1000 nM.
For `COc1ccc(C2CCN(C(C)=O)C[C@H]2NC(=O)Nc2ccc(C)nc2)cc1` (mixture of isomers) [Example 28, rac-trans-1-(1-acetyl-4-(4-methoxyphenyl)piperidin-3-yl)-3-(6-methylpyridin-3-yl)urea], the EC50 in test [1] and in test [2] was 1 to 1000 nM throughout.
With `COc1ccc([C@@H]2CCN(C(C)=O)C[C@H]2NC(=O)Nc2ccc(Cl)cc2)cc1` (racemic) [Example 2, rac-trans-1-(1-acetyl-4-(4-methoxyphenyl)piperidin-3-yl)-3-(4-chlorophenyl)urea], the EC50 in test [1] and in test [2] was less than 1 nM in each case.
Consider `COc1ccc([C@@H]2CCN(C(=O)C3CC3)C[C@H]2NC(=O)Nc2ccc(Cl)cc2)cc1` (racemic) [Example 12, rac-trans-1-(4-chlorophenyl)-3-(1-(cyclopropanecarbonyl)-4-(4-methoxyphenyl)piperidin-3-yl)urea], for which the EC50 in test [1] and in test [2] was less than 1 nM in each case.
As to `COc1cc(F)c([C@@H]2CC(=O)NC[C@H]2NC(=O)Nc2cc(C)ns2)c(F)c1` (racemic) [Example 55, rac-trans-1-[4-(2,6-Difluoro-4-methoxy-phenyl)-6-oxo-piperidin-3-yl]-3-(3-methyl-isothiazol-5-yl)-urea], the EC50 in test [1] and in test [2] was 1 to 1000 nM each time.
Regarding `COc1cc(F)c([C@@H]2CC(=O)N(CCO)C[C@H]2NC(=O)Nc2ccc(Cl)cc2)c(F)c1` (racemic) [Example 31, rac-trans-1-(4-chlorophenyl)-3-(4-(2,6-difluoro-4-methoxyphenyl)-1-(2-hydroxyethyl)-6-oxopiperidin-3-yl)urea], the EC50 is less than 1 nM in test [1] and 1 to 1000 nM in test [2].
The like results for `COCCN1CC(NC(=O)Nc2ccc(Cl)cc2)C(c2ccc(OC)cc2F)CC1=O` (single isomer, unassigned; ent1) [Example 59, trans-ent1-1-(4-Chlorophenyl)-3-[4-(2-fluoro-4-methoxy-phenyl)-1-(2-methoxy-ethyl)-6-oxo-piperidin-3-yl]-urea] were, in that order, less than 1 nM and 1 to 1000 nM.
The like results for `COCCC(=O)N1CC[C@@H](c2ccc(OC)cc2)[C@H](NC(=O)Nc2ccc(Cl)cc2)C1` (racemic) [Example 15, rac-trans-1-(4-chlorophenyl)-3-(4-(4-methoxyphenyl)-1-(3-methoxypropanoyl)piperidin-3-yl)urea] were, in that order, less than 1 nM and less than 1 nM.
Take `O=C1CC(c2ccc(F)cc2F)C(NC(=O)Nc2ccc(Cl)cc2)CN1` (single isomer, unassigned; ent2) [Example 68, trans-ent2-1-(4-Chlorophenyl)-3-[4-(2,4-difluoro-phenyl)-6-oxo-piperidin-3-yl]-urea]: the EC50 in test [1] and in test [2] was 1 to 1000 nM in each case.
Regarding `O=C(Nc1ccc(Cl)cc1)NC1CNCCC1c1ccccc1` (single isomer, unassigned; ent2) [Example 81, trans-ent2-1-(4-chlorophenyl)-3-(4-phenylpiperidin-3-yl)urea], the EC50 in test [1] and in test [2] was 1 to 1000 nM each time.
Turning to `COc1ccc([C@@H]2CCN(C(=O)C3CCOCC3)C[C@H]2NC(=O)Nc2ccc(Cl)cc2)cc1` (racemic) [Example 16, rac-trans-1-(4-chlorophenyl)-3-(4-(4-methoxyphenyl)-1-(tetrahydro-2H-pyran-4-carbonyl)piperidin-3-yl)urea], the concentration giving a half-maximal response (EC50) in test [1] and in test [2] was less than 1 nM throughout.
`O=C(Nc1ccc(Cl)cc1)NC1CN(C(=O)C2CC2)CCC1c1ccccc1` (single isomer, unassigned; ent2) [Example 84, trans-ent2-1-(4-chlorophenyl)-3-(1-(cyclopropanecarbonyl)-4-phenylpiperidin-3-yl)urea]: the EC50 in test [1] and in test [2] was 1 to 1000 nM in each case.
`COc1ccc([C@@H]2CC(=O)N(C)C[C@H]2NC(=O)Nc2ccc(Cl)cc2)cc1` (stereo in doubt) [Example 11, trans-ent2-(4-chlorophenyl)-3-(4-(4-methoxyphenyl)-1-methyl-6-oxopiperidin-3-yl)urea]: the EC50 in test [1] and in test [2] was 1 to 1000 nM each time.
Regarding `COc1cc(F)c(C2CC(=O)NCC2NC(=O)Nc2ccc(Cl)cc2)c(F)c1` (single isomer, unassigned; ent1) [Example 49, trans-ent1-1-(4-chlorophenyl)-3-(4-(2,6-difluoro-4-methoxyphenyl)-6-oxopiperidin-3-yl)urea], the EC50 in test [1] and in test [2] was 1 to 1000 nM in each case.

Source of the values: patent US10265310B2, “6-membered cyclic amines or lactames substituted with urea and phenyl” (GRÜNENTHAL GMBH, priority 2016, dated 2019).
